How the values were obtained:
Polθ ATPase = target: T1, Polθ ATPase (Homo sapiens, UniProt O75417); assay: Polθ ATPase activity assay (ADP-Glo Kinase Assay kit); type: biochemical; conditions: truncated POLQ-N protein (aa 1-894) 1 nM, 50 nM ssDNA, 50 µM ATP
T1 construct: purified truncated POLQ-N protein (aa 1-894, N-terminal 6-His tag); 6-His (N)
Protocol: The inhibitory efficiency of the compounds of formula (I) against Polθ ATPase activity was determined using the ADP-Glo Kinase Assay kit (Promega, V9101). […] The starting (final) concentration was 100 nM, followed by a 3-fold serial dilution for a total of 10 concentration points in duplicate (n=2). 5 μL of purified […], N-terminal 6-His tag) was added to each well. After centrifugation at 1000 rpm for 1 minute, the plate was incubated at 25°C for 10 minutes. 5 μL of substrate reaction solution (containing ATP & ssDNA) was added to each well, and the reaction was carried out at 25°C for 60 minutes. 5 μL of ADP-Glo Reagent was added to each well. After centrifugation at 1000 rpm for 1 minute, the plate was incubated at 25°C for 40 minutes. 10 μL of detection solution was added to each well. After centrifugation at 1000 rpm for 1 minute, the plate was incubated at 25°C for 40 minutes. Luminescence signals were recorded using a microplate reader (BMG, PHERAstar FSX). The final reaction system contained 1 nM of POLQ-N enzyme; 50 nM of ssDNA ([NT]); 50 μM of ATP; and 1% DMSO. The inhibition percentage (%) of the compound at each concentration was calculated using the RFU values normalized against the control wells within each assay plate. Table 1: Inhibitory activity of compounds against Polθ ATPase

DLD-1 BRCA2-/- cells = assay: DLD-1 BRCA2-/- cell proliferation assay (CellTiter-Glo, 10 days incubation); type: cell-based; conditions: Homo sapiens, 240 h, DLD-1 BRCA2-/- cell line, total incubation period of 10 days, read-out: DLD1 BRCA2^-/- IC50
Source text: The anti-proliferative effect of the compounds on the human colorectal adenocarcinoma cell line DLD-1 BRCA2^-/- method.
• DLD-1 (purchased from ATCC, Cat. No.: CCL-221, Batch No.: 70033255); • RPMI1640 (purchased from Invitrogen, Cat. No.: 11875-085); • 0.25% Trypsin-EDTA (purchased from Invitrogen, Cat. No.: 25200-072); • Penicillin-Streptomycin solution (purchased from Hyclone, Cat. No.: SV30010); • FBS (purchased from BI, Cat. No.: 04-002-1A); • DMSO (purchased from Sigma, Cat. No.: D4540-1L); • 96-well plate (purchased from Corning, Cat. No.: CLS3903); • CellTiter-Glo reagent (purchased from Promega, Cat. No.: G7558).
The anti-proliferative effect of the compounds on a human colorectal adenocarcinoma cell line was evaluated using an ATP quantification method, wherein the measured activity correlates well with the number of viable cells. The genetically edited cell line DLD-1 BRCA2^-/- was cultured in RPMI 1640 medium (Invitrogen, 11875-085) supplemented with 10% (v/v) fetal bovine serum (BI, 04-002-1A). The cell line was cultured according to the standard instructions of the American Type Culture Collection (ATCC) and identified via short tandem repeat (STR) genotyping.
In the proliferation assay, cells were harvested and resuspended in cell culture medium. Cell density was determined using a cell counter. An appropriate volume of cell suspension was aspirated from the centrifuge tube to prepare a plating working solution (150 cells/100 µL for the DLD-1 BRCA2^-/- cell line). 100 µL of the cell suspension was seeded into each well of a 96-well plate (Corning, 3603) and incubated overnight in an incubator. The diluted test compound solutions were added to the wells. On the fourth and seventh days of compound incubation, the medium was replaced with fresh culture medium, and the compounds were re-administered, for a total incubation period of 10 days. Following incubation, the cell culture plates were removed and equilibrated to room temperature. 100 µL of CellTiter-Glo (Promega, G7558) was added to each well, and the plate was incubated at room temperature for 30 minutes. Data were read using a microplate reader (PerkinElmer, Enspire) in 96-well luminescence mode. Data analysis, curve fitting, and reporting were performed using the dose-response one-site 205 model of IDBS XL fit. Table 2: Proliferation inhibitory activity of compounds against DLD-1 BRCA2-/- cells

T1 sequence (O75417 1-894): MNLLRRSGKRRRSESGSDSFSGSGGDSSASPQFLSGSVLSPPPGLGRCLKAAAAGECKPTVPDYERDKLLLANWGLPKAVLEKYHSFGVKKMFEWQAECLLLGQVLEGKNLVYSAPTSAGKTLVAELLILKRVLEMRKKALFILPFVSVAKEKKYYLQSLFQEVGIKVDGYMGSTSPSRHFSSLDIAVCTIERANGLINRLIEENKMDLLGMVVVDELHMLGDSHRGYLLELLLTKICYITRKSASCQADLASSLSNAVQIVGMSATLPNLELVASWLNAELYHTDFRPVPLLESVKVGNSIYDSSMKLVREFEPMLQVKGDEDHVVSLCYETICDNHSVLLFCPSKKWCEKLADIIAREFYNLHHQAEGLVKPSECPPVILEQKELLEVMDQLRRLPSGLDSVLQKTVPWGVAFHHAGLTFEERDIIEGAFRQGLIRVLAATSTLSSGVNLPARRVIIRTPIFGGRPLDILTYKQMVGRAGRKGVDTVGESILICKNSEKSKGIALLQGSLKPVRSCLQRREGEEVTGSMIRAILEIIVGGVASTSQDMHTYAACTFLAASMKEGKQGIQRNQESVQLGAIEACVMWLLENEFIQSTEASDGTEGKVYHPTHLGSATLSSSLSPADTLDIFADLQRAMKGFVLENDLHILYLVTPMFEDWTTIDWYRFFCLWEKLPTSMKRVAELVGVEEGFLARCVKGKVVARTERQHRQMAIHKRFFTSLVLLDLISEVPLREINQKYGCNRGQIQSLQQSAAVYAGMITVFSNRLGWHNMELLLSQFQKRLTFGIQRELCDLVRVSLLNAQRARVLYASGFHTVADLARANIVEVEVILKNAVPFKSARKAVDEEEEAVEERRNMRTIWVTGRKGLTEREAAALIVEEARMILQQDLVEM

IC50 (Polθ ATPase; class symbols) [nM] | IC50 (Polθ ATPase; specific values) [nM] | IC50 (DLD-1 BRCA2-/- cells) [nM] | Structure (SMILES)
≤ 2 | 1.4 | 16 | [2H]C([2H])([2H])O[C@@H](C)c1ccc(CS(=O)(=O)NC(=O)c2ccc(C([2H])([2H])[2H])cc2-c2cc(Cl)ncc2OC)cc1 [cpd-17, (S)-2-(2-Chloro-5-methoxypyridin-4-yl)-N-((4-(1-(methoxy-d3)ethyl)benzyl)sulfonyl)-4-(methyl-d3)benzamide]
≤ 2 | 0.39 | 24 | [2H]C([2H])([2H])O[C@@H](C)c1ccc(CS(=O)(=O)NC(=O)c2ccc(C([2H])([2H])[2H])cc2-c2cc(C(F)F)ncc2OC)cc1 [cpd-16, (S)-2-(2-(Difluoromethyl)-5-methoxypyridin-4-yl)-N-((4-(1-(methoxy-d3)ethyl)benzyl)sulfonyl)-4-(methyl-d3)benzamide]
2 to 10 | 2.2 | 21 | COc1cnc(Cl)cc1-c1cc(C)ncc1C(=O)Nc1nnc(OC[C@H]2COCCO2)s1 [Ref. 1, reference compound]
